In experiment [1] the test system is HEK293. Nature of the experiment: SAR analysis of compounds that are cytotoxic to HEK293 - Set 3. [Related pubchem assays (depositor defined):AID1575, AID1578, AID1848, AID1849, AID2001, AID2333, AID2334, AID2335, AID2337, AID2469]. The class given is functional, cell-based. Conditions: Homo sapiens.
Experiment [2] concerns the target T1, Nucleotide-binding oligomerization domain-containing protein 1 (Homo sapiens, UniProt Q9Y239).
T1 sequence (Q9Y239 whole entry): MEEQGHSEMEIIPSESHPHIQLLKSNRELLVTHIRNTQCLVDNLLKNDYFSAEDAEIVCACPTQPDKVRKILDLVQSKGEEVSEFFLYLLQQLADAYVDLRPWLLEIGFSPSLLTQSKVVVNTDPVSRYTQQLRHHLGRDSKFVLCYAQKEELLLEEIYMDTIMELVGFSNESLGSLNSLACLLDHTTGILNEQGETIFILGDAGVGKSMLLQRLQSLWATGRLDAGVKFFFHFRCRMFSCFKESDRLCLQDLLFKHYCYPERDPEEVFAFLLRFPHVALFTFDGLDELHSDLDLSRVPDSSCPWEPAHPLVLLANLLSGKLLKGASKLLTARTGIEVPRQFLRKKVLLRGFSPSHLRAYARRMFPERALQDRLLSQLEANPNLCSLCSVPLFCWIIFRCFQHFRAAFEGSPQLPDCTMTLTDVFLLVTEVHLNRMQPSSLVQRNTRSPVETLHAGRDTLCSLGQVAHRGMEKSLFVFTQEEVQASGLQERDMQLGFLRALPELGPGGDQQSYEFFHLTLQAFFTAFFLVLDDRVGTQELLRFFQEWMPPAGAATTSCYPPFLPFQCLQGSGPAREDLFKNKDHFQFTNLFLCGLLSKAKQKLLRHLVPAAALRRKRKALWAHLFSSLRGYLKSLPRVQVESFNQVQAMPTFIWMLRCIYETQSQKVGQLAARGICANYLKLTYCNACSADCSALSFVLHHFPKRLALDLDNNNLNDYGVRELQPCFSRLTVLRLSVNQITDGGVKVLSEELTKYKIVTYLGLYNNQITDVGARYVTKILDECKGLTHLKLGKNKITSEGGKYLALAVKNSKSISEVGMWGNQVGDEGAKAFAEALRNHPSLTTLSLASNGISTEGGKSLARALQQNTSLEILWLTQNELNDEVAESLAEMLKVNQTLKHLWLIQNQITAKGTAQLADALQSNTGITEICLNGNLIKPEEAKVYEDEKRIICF
Nature of the experiment: SAR analysis of compounds that inhibit NOD1 - Set 3. [Related pubchem assays (depositor defined):AID1566, AID1575, AID1578, AID1849, AID1852, AID2333, AID2335, AID2466]. The class given is functional.

Experiment [3] has as its target T1, Nucleotide-binding oligomerization domain-containing protein 1. Nature of the experiment: SAR analysis of NF-kappaB dependent luciferase using DAP as an inducer - Set 2. [Related pubchem assays (depositor defined):AID1566, AID1575, AID1578, AID1579, AID1849, AID1852, AID2264]. The class given is functional.
For experiment [4], the target named is T2, Interleukin-8 (Homo sapiens, UniProt P10145).
T2 sequence (P10145 whole entry): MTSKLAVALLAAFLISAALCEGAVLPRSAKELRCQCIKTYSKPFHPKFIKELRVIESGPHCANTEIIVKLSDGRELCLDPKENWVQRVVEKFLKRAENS
Nature of the experiment: SAR analysis of Tumor necrosis factor alpha (TNF-alpha) induced IL-8 secretion in MCF-7/NOD1 cells - Set 2. [Related pubchem assays (depositor defined):AID1575, AID2250, AID2260]. Type of experiment: functional, cell-based.

Experiment [5] concerns the target T1, Nucleotide-binding oligomerization domain-containing protein 1. Nature of the experiment: SAR analysis of compounds that inhibit NOD1 - Set 2. [Related pubchem assays (depositor defined):AID1566, AID1575, AID1578, AID1849, AID1852, AID2333, AID2335, AID2798]. Type of experiment: functional.
Experiment [6] concerns HEK293. Nature of the experiment: SAR analysis of compounds that are cytotoxic to HEK293 - Set 2. [Related pubchem assays (depositor defined):AID1575, AID1578, AID1849, AID2001, AID2333, AID2334, AID2335, AID2337, AID2800]. The class given is functional, cell-based. Conditions: Homo sapiens.
The target of experiment [7] is T3, Nucleotide-binding oligomerization domain-containing protein 2 (Homo sapiens, UniProt Q9HC29). Nature of the experiment: NOD2 inhibitors, SAR follow-up, set 2 (AID 2475). Type of experiment: functional.
T3 sequence (Q9HC29 whole entry, the tested form may be a part): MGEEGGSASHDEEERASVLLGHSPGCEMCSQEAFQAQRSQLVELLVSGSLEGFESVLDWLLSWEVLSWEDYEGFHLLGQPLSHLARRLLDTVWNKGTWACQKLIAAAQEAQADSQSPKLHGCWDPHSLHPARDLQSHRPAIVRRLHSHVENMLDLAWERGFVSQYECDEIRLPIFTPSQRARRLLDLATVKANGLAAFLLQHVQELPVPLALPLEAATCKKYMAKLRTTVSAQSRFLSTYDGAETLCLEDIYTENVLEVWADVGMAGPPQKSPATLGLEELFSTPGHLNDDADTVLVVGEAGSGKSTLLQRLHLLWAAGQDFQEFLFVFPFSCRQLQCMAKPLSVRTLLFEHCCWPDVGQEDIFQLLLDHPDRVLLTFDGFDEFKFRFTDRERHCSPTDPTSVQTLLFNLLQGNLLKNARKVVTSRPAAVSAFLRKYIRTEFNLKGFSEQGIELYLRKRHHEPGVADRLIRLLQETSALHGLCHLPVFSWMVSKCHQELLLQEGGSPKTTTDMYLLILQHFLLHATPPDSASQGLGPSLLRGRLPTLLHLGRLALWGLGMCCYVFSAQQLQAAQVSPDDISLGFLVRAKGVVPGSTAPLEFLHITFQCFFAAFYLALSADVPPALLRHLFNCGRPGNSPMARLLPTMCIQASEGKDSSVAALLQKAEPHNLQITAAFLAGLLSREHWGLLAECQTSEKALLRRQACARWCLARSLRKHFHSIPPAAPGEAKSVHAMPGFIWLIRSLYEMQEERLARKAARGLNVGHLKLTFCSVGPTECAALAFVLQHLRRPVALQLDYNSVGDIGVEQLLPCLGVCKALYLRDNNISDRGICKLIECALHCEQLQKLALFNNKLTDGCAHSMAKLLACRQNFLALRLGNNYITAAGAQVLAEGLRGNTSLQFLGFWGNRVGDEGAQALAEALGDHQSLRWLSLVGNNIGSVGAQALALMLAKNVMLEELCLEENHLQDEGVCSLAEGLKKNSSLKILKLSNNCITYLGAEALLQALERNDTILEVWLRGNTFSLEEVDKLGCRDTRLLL
Experiment [8] addresses Tumor necrosis factor (Homo sapiens, UniProt P01375). Nature of the experiment: TNFa-triggered NF-kB activation inhibitors, SAR follow-up, cell-based, set 3 (AID 2801). Type of experiment: functional.
In experiment [9] the target is T3, Nucleotide-binding oligomerization domain-containing protein 2. Put plainly: NOD2 signaling inhibitors, analog potency, SAR follow-up, cell-based, set 3 (AID 2799). The class given is functional.
Experiment [10] deals with T2, Interleukin-8. Put plainly: SAR analysis of GM-Tri-DAP induced IL-8 secretion in MCF-7/NOD1 cells - Set 2. [Related pubchem assays (depositor defined):AID1575, AID1578, AID2333]. Type of experiment: functional, cell-based.
For experiment [11], the target named is T4, G-protein coupled receptor 55 (Homo sapiens, UniProt Q9Y2T6). Nature of the experiment: GPR55 antagonists blocking LPI-driven arrestin recruitment, primary screen, imaging, U2OS, beta-arrestin-GFP, LPI agonist (AID 2013).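 Also: antagonist potency measured as reduced agonist-driven arrestin aggregation.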 Type of experiment: functional. (In general: Arrestin recruitment assays detect the binding of arrestin to an activated receptor.)
T4 sequence (Q9Y2T6 whole entry): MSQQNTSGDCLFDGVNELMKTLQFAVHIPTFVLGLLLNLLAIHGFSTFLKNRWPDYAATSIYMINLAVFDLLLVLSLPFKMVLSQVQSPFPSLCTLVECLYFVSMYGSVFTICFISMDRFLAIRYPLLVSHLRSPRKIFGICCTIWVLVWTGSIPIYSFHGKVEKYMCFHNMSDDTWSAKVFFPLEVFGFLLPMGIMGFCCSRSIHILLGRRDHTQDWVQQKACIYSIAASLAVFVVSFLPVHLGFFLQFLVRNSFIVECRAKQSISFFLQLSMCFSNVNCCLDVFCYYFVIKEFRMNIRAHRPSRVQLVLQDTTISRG

Experiment [12] addresses T5, Cannabinoid receptor 2 (Homo sapiens, UniProt P34972). Put plainly: SAR analysis of agonists of the Cannabinoid Receptor 2 using an Image-Based Assay - Set 2. [Related pubchem assays (depositor defined):AID1961, AID1965]. The class given is functional.
The target in experiment [13] is T6, G-protein coupled receptor 35 (Homo sapiens, UniProt Q9HC97). Nature of the experiment: SAR analysis of Antagonists of the GPR35 Receptor using an Image-Based Assay - Set 4. [Related pubchem assays (depositor defined):[…]]. Type of experiment: functional.
T6 sequence (Q9HC97 whole entry): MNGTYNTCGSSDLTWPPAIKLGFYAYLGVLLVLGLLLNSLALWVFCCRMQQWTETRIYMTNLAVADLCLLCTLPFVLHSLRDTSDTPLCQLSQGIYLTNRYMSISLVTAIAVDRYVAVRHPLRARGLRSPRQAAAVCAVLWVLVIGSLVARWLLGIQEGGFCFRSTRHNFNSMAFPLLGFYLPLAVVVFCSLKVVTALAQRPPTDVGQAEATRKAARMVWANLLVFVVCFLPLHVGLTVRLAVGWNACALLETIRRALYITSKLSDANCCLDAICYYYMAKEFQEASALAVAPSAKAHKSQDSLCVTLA
Experiment [14] has as its target T7, Cannabinoid receptor 1 (Homo sapiens, UniProt P21554). Nature of the experiment: SAR analysis of antagonists of the Cannabinoid Receptor 1 using an Image-Based Assay - Set 3. [Related pubchem assays (depositor defined):AID1961, AID1965]. The class given is functional.
The target of experiment [15] is T7, Cannabinoid receptor 1. Nature of the experiment: SAR analysis of agonists of the Cannabinoid Receptor 1 using an Image-Based Assay - Set 3. [Related pubchem assays (depositor defined):AID1961, AID1965]. Type of experiment: functional.
In experiment [16] the target is T6, G-protein coupled receptor 35. Put plainly: SAR analysis of Agonists of the GPR35 Receptor using an Image-Based Assay - Set 3. [Related pubchem assays (depositor defined):AID1961, AID1965]. Type of experiment: functional.
For experiment [17], the target named is T4, G-protein coupled receptor 55. Nature of the experiment: SAR analysis of selective Agonists of GPR55 using an Image-Based Assay - Set 2. [Related pubchem assays (depositor defined):AID1961, AID1965]. Type of experiment: functional.
Experiment [18] deals with T5, Cannabinoid receptor 2. Put plainly: SAR analysis of antagonists of the Cannabinoid Receptor 2 using an Image-Based Assay - Set 2. [Related pubchem assays (depositor defined):AID1961, AID1965]. Type of experiment: functional.
Experiment [19] deals with T8, Intestinal-type alkaline phosphatase (Homo sapiens, UniProt P09923). Put plainly: human intestinal alkaline phosphatase activators, dose response, biochemical, luminescence, uHTS hits (AID 463120). The class given is functional.
T8 sequence (P09923 whole entry): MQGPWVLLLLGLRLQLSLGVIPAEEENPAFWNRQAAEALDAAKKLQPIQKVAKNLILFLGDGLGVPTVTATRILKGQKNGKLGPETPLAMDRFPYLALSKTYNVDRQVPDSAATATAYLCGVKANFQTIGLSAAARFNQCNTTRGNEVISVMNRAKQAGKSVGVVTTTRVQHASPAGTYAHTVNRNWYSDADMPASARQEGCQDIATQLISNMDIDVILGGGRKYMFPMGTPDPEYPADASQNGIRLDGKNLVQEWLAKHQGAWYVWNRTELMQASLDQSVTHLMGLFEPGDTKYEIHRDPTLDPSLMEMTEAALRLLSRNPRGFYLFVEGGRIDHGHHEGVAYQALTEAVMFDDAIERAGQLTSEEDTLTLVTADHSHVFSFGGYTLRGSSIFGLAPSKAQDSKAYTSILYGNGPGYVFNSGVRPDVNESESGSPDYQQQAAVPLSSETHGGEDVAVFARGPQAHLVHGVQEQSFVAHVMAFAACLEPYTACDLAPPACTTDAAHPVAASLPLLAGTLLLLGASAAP
The target in experiment [20] is T8, Intestinal-type alkaline phosphatase. Nature of the experiment: Dose Response confirmation of uHTS hits from a small molecule inhibitors of human intestinal alkaline phosphatase via a luminescent assay. [Related pubchem assays (depositor defined):AID2544, AID2574]. The class given is functional.

SMILES strings stand for the structures. Active and inactive are the calls of the source.

T5 sequence (P34972 whole entry): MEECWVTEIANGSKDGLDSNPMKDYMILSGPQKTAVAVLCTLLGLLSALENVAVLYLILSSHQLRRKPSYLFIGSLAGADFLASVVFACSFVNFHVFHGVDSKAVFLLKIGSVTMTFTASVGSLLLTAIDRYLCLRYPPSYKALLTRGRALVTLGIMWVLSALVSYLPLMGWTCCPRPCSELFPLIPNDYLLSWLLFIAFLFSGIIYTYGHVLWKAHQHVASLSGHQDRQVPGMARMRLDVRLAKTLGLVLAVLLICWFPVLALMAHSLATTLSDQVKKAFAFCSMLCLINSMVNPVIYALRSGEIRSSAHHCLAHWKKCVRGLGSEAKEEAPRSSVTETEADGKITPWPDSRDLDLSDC
T7 sequence (P21554 whole entry): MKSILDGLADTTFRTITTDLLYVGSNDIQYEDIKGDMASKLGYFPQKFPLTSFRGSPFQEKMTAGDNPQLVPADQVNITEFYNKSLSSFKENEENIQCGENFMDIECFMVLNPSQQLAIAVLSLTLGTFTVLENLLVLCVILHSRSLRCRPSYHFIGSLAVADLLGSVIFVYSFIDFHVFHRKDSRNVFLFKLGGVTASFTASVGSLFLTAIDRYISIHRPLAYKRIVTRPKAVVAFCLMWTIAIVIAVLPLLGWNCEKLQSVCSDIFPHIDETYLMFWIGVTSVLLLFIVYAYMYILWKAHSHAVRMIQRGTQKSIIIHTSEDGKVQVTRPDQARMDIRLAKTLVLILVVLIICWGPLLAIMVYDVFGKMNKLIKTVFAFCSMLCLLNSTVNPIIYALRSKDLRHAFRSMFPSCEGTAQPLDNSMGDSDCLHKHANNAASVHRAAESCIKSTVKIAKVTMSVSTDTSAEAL
Sequence of Tumor necrosis factor (P01375 whole entry, the tested form may be a part): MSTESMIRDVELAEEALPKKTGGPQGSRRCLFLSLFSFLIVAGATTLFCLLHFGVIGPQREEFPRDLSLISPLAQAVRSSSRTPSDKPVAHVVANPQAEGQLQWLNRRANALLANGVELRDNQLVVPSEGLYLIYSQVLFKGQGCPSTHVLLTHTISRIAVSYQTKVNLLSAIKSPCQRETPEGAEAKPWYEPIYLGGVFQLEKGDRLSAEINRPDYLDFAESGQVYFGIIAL

With `C=CCn1c(SCCCc2ccccc2)nc2c1c(=O)[nH]c(=O)n2C`, the IC50 in experiment [1] is > 20 µM (inactive); in [2], > 20 µM (inactive); in [3], > 25 µM (inactive); in [4], > 25 µM (inactive); in experiment [5], 9.33 µM (active); in experiment [6], > 20 µM (inactive). For the same molecule, the IC50 in [7] was 14.8 µM (active); in [8], > 20 µM (inactive); in experiment [9], > 20 µM (inactive); in experiment [10] it was > 25 µM (inactive).
`CCOC(=O)c1c(NC(=O)C2=C(C)N=C(S)NC2c2ccc(C)cc2)sc(C)c1C` (stereo not given): in experiment [11], the IC50 is < 0.5 µM (active).
For `CCC1CCc2sc(C(=O)Nc3cc(S(=O)(=O)N4CCOCC4)ccc3OC)cc2C1` (stereo not given), the EC50 is > 32 µM (inactive) in [12], > 32 µM (inactive) in [15], > 32 µM (inactive) in experiment [16] and 0.409 µM (active) in [17]. Moreover, the IC50 in experiment [13], in experiment [14] and in experiment [18] was > 32 µM (inactive) in each case.
As to `COc1ccc(CC2CC(=O)N(c3ccc(C)cc3)C2=O)cc1` (stereo not given), the EC50 in experiment [19] was > 100 µM (inactive). For the same molecule, in experiment [20], the IC50 is > 100 µM (inactive).

Usually IC50 stands for the midpoint of a concentration-inhibition curve. The term EC50 denotes the midpoint of the concentration-response curve.
